Data from patent EP0461827B1, “Hair restorer” (KABUSHIKI KAISHA HAYASHIBARA SEIBUTSU KAGAKU KENKYUJO, priority 1990, dated 1991).

Experiments:
[1] = test system: α-glucosidase which had been extracted from a pig liver
[2] = test system: rabbits; assay: Hair regeneration on depilated dorsum of rabbits, lotion applied once daily; type: in vivo; conditions: 1% in 50% aqueous ethanol with 2% propyleneglycol, pH 6.7, 1ml once every day, difference to untreated area; for Mean remainder of hair length (mm) 10th (day): 10th day after application; for Mean remainder of hair length (mm) 20th (day): 20th day after application; for Mean remainder of hair length (mm) 30th (day): 30th day after application
Procedure: Either of an α-glycosyl-L-ascorbic acid or an α-glycosyl bioflavonoid prepared by the method in Example of Preparation 1-8 was dissolved to give a concentration of 1% in a 50% aqueous ethanol solution containing 2% propyleneglycol, and the mixture was adjusted to pH 6.7 by the addition of 6N sodium hydroxide to obtain a solution in hair lotion form. As control, a solution in hair lotion form was prepared similarly as above, except that α-glycosyl-L-ascorbic acid and α-glycosyl bioflavonoid were replaced with either of intact L-ascorbic acid, bioflavonoid and refined water.
The dorsum surgace of rabbits was sectioned into four areas, 5cm^2 each, i.e. two areas near at head side and two areas near at tail side which were respectively bisymmetrical about the vertebral columns of the rabbits, and the four areas were depilated by applying thereto silver cream (a depilatory agent) and subjecting them to brief standing. The depilated areas were first sufficiently washed with water, then the depilated areas of the right area near at head side, the left area near at head side, and the right area near at tail side were respectively applied once every day by using a paintbrush with 1ml of the test solution, 1ml of the control solution containing refined water, and 1ml of the control solution containing L-ascorbic acid or bioflavonoid. Furthermore, the left area near at tail side was untreated.
The application of each solution was started on the second day after the depilation, and the newly regenerated hairs were depilated to count on the 10th, 20th and 30th days after the application. The length of 10 coarse hairs regenerated in each area was measured with a micromanipulator, and expressed by the mean remainder of hair length (mm) between the hair length in the area which had been applied with a sample solution and that in the area which had been untreated.
In addition, it has been known that the growth rates of hairs in the bisymmetrical dorsum surfaces about the vertebral column of a rabbit is in the same level, and those in both sexes are also in the same level.

[3] = test system: volunteers with alopecias; assay: 3-month clinical test of a hair restorer lotion in volunteers with alopecias; type: in vivo, human; conditions: for Therapeutic efficacy (Number of volunteers) Recovery / Therapeutic efficacy (Number of volunteers) Moderate recovery / Therapeutic efficacy (Number of volunteers) Not effected / Therapeutic efficacy (Number of volunteers) Unfavorable: 3-month, lotion with 1.0 part of ingredient, 3 times a day; for Therapeutic efficacy (Number of volunteers) Recovery: hair newly regenerated, apparently free from alopecia; for Therapeutic efficacy (Number of volunteers) Moderate recovery: moderate hair regeneration, no recurrence of alopecia; for Therapeutic efficacy (Number of volunteers) Not effected: no regeneration of hair; for Therapeutic efficacy (Number of volunteers) Unfavorable: side effect or acceleration of alopecia found; for cure rate (%): percentage of volunteers with recovery and moderate recovery against total number of each group
Text: Based on the results in Experiment 1, 20 randomly chosen volunteers with alopecias (10 men and 10 women) as the recipient received 3-month clinical test. The volunteers were 15-66 years old.
The symptom of the volunteers, who had received a pharmacotherapy or physiotherapy at a department of dermatology, were the male alopecia such as senile alopecia and alopecia prematura, and alopecia areata such as multiple alopecia areata and malignant alopecia areata.
Since the symptom of the volunteers with a slight alopecia areata may be spontaneously recovered, the volunteers with a relatively small alopecic site and those with the atrophia cutis or atrophic pores which were not clinically observed were excluded in this Experiment.
The procedure of therapeutic treatment used in this Experiment is carried out according to conventional procedure:
Forty-five parts of ethanol, 2 parts of glycerine, 55 parts of refined water, and 1.0 part of 2-O-α-D-glucosyl-L-ascorbic acid or α-glucosyl bioflavonoid prepared by the method in Example of Preparation 2, 4, 6 or 8, were mixed, and the mixture was adjusted to pH 6.7 by the addition of 6N sodium hydroxide to obtain a hair restorer for external application in lotion form. When the volunteers received a physical examination, their affected sites were applied a thin coat of the hair restorer, massaged and exposed to an artificial sunlight. Furthermore, the volunteers were instructed to apply the hair restorer to the affected sites 3 times a day at home.
As control, a hair restorer for external application containing intact L-ascorbic acid or bioflavonoid in place of 2-O-α-D-glucosyl-L-ascorbic acid or α-glucosyl bioflavonoid in the above hair restorer was used.

| Compound | hydrolysis by α-glucosidase [1] | Mean remainder of hair length (mm) 10th (day) [2] | Mean remainder of hair length (mm) 20th (day) [2] | Mean remainder of hair length (mm) 30th (day) [2] | Therapeutic efficacy (Number of volunteers) Recovery [3] | Therapeutic efficacy (Number of volunteers) Moderate recovery [3] | Therapeutic efficacy (Number of volunteers) Not effected [3] | Therapeutic efficacy (Number of volunteers) Unfavorable [3] | cure rate (%) [3] |
| --- | --- | --- | --- | --- | --- | --- | --- | --- | --- |
| α-Glucosyl naringin | hydrolyzed the α-glucosyl naringin into naringin and D-glucose | 2.1 mm | 6.6 mm | 6.3 mm | 4 Number of volunteers | 9 Number of volunteers | 7 Number of volunteers | 0 Number of volunteers | 65% |
| COc1ccc(C2CC(=O)c3c(O)cc(OC4OC(COC5OC(C)C(O)C(O)C5O)C(O)C(O)C4O)cc3O2)cc1O (stereo not drawn) [Hesperidin, reference compound] | – | 0.1 mm | 0.5 mm | 0.2 mm | 0 Number of volunteers | 3 Number of volunteers | 12 Number of volunteers | 5 Number of volunteers | – |
| α-Glucosyl hesperidin | formed hesperidin and D-glucose | 2.3 mm | 7.4 mm | 6.7 mm | 4 Number of volunteers | 11 Number of volunteers | 5 Number of volunteers | 0 Number of volunteers | 75% |
| C[C@@H]1O[C@@H](OC[C@H]2O[C@@H](Oc3c(-c4ccc(O)c(O)c4)oc4cc(O)cc(O)c4c3=O)[C@H](O)[C@@H](O)[C@@H]2O)[C@H](O)[C@H](O)[C@H]1O [Rutin, 3-[[6-O-(6-deoxy-α-L-mannopyranosyl)-β-D-glucopyranosyl)]oxy-2-(3,4-dihydroxyphenyl)-5,7-dihydroxy-4H-1-benzopyran-4-one, reference compound] | – | 0.3 mm | 0.9 mm | 0.5 mm | 0 Number of volunteers | 4 Number of volunteers | 13 Number of volunteers | 3 Number of volunteers | – |
| O=C1O[C@H]([C@@H](O)CO)C(O)=C1O[C@H]1O[C@H](CO)[C@@H](O)[C@H](O)[C@H]1O [2-O-α-D-Glucosyl-L-ascorbic acid] | – | 2.4 mm | 6.8 mm | 6.9 mm | 6 Number of volunteers | 10 Number of volunteers | 4 Number of volunteers | 0 Number of volunteers | 80% |
| α-Glucosyl rutin | hydrolyzed into rutin and D-glucose | 2.5 mm | 8.2 mm | 7.6 mm | 6 Number of volunteers | 12 Number of volunteers | 2 Number of volunteers | 0 Number of volunteers | 90% |
| O=C1O[C@H]([C@@H](O)CO)C(O)=C1O [L-Ascorbic acid, L-ascorbic acid, reference compound] | – | 0.1 mm | -0.2 mm | 0.5 mm | 0 Number of volunteers | 3 Number of volunteers | 11 Number of volunteers | 6 Number of volunteers | – |
| C[C@@H]1O[C@@H](O[C@H]2[C@H](Oc3cc(O)c4c(c3)O[C@H](c3ccc(O)cc3)CC4=O)O[C@H](CO)[C@@H](O)[C@@H]2O)[C@H](O)[C@H](O)[C@H]1O [Naringin, reference compound] | – | 0.1 mm | 0.5 mm | -0.2 mm | 0 Number of volunteers | 5 Number of volunteers | 10 Number of volunteers | 5 Number of volunteers | – |
